Test results reported in patent publication US10676514B2, “CDCA1-derived peptide and vaccine containing same” (ONCOTHERAPY SCIENCE, INC., priority 2014, dated 2020).
Entries after “also recorded” stand apart in the source; their conditions may differ.

System: peptide-pulsed C1R-A11 cells
Experiment: IFN-gamma ELISPOT assay of peptide-induced CTLs (HLA-A*1101)
Format: cell-based, human
Conditions: CTLs induced from HLA-A*1101-positive donors, peptide-pulsed C1R-A11 vs control
Text: Monocyte-derived dendritic cells (DCs) were used as the antigen-presenting cell to induce a cytotoxic T lymphocyte (CTL) response against peptides presented on human leukocyte antigens (HLAs). As described in the other sections, DCs were generated in vitro (Nakahara S et al., Cancer Res 2003, 63(14): 4112-8). Specifically, peripheral-blood mononuclear cells isolated from healthy volunteers (HLA-A*1101-positive) with the Ficoll-Paque plus solution (Pharmacia) were separated by attaching to plastic tissue culture dishes (Becton Dickinson) and concentrated as a monocyte fraction. The monocyte-concentrated population was cultured in the presence of 1000 IU/ml granulocyte macrophage colony-stimulating factor (R&D System) and 1000 IU/ml interleukin(IL)-4 (R&D System) in an AIM-V medium (Invitrogen) containing 2% heat-inactivated autologous serum (AS). After seven days of culturing, the cytokine-induced DCs were pulsed with 20 micro-g/ml each of the synthesized peptides in an AIM-V medium at 37 degrees C. for three hours in the presence of 3 micro-g/ml beta 2-microglobulin. The generated cells appeared to express on their cell surface DC-associated molecules such as CD80, CD83, CD86 and HLA class II (data not shown). Next, these peptide-pulsed DCs were inactivated by X-ray irradiation (20 Gy), and mixed in a 1:20 ratio with autologous CD8^+ T cells obtained by positive selection using the CD8 Positive Isolation Kit (Dynal). These culture products were seeded in a 48-well plate (Corning). Each well was made to contain 1.5×10^4 peptide-pulsed DCs, 3×10^5 CD8^+ T cells and 10 ng/ml IL-7 (R&D System) in 0.5 ml of the AIM-V/2% AS medium. Three days later, these culture products were added with a final concentration of 20 IU/ml IL-2 (CHIRON). On day 7 and day 14, T cells were further stimulated with peptide-pulsed autologous DCs. The DCs were prepared every time by the same method as above. On day 21, after the third peptide stimulation, CTLs were examined against the peptide-pulsed C1R-A11 cells by a human interferon (IFN)-gamma enzyme-linked immunospot (ELISPOT) assay (Tanaka H et al., Br J Cancer 2001, 84(1): 94-9; Umano Y et al., Br J Cancer 2001, 84(8): 1052-7; Uchida N et al., Clin Cancer Res 2004, 10(24): 8577-86; Suda T et al., Cancer Sci 2006, 97(5): 411-9; Watanabe T et al., Cancer Sci 2005, 96(8): 498-506).
Specifically, peptide-pulsed C1R-A11 (1×10^4 cells/well) was prepared as the stimulator cell. The induced CTLs, i.e., CTL lines and CTL clones, were used as the responder cell. The IFN-gamma ELISPOT assay and IFN-gamma ELISA were performed according to the manufacturer's manual.

## VTTINQEIQK (a peptide derived from CDCA1) [SEQ ID NO: 33]
Listed as CDCA1-A1-10-391
  peptide-specific CTL activity (IFN-gamma production): no specific IFN-gamma production
Listed as CDCA1-A11-10-391
  peptide-specific CTL activity (IFN-gamma production): specific IFN-gamma production was not observed

## NAAHQEALMK (a peptide derived from CDCA1) [SEQ ID NO: 45]
Listed as CDCA1-A1-10-156
  peptide-specific CTL activity (IFN-gamma production): significant specific CTL activity
Listed as CDCA1-A11-10-156
  peptide-specific CTL activity (IFN-gamma production): potent IFN-gamma production

## CQLEVQLYQK (a peptide derived from CDCA1) [SEQ ID NO: 39]
Listed as CDCA1-A11-10-289
  peptide-specific CTL activity (IFN-gamma production): potent IFN-gamma production; also recorded: significant specific CTL activity
Listed as CDCA1A11-10-289
  peptide-specific CTL activity (IFN-gamma production): potent IFN-gamma production

## KILTGADGK (a peptide derived from CDCA1) [SEQ ID NO: 12]
Listed as CDCA1-A1-9-21
  peptide-specific CTL activity (IFN-gamma production): potent IFN-gamma production
Listed as CDCA1-A11-9-21
  peptide-specific CTL activity (IFN-gamma production): potent IFN-gamma production; also recorded: significant specific CTL activity

## TAELKRKMFK (a peptide derived from CDCA1) [SEQ ID NO: 35]
Listed as CDCA1-A11-10-452
  peptide-specific CTL activity (IFN-gamma production): potent IFN-gamma production; also recorded: significant specific CTL activity

## KSNISEKTK (a peptide derived from CDCA1) [SEQ ID NO: 17]
Listed as CDCA1-A11-9-213
  peptide-specific CTL activity (IFN-gamma production): potent IFN-gamma production; also recorded: significant specific CTL activity

## TADILCPKAK (a peptide derived from CDCA1) [SEQ ID NO: 56]
Listed as CDCA1-A1-10-106
  peptide-specific CTL activity (IFN-gamma production): significant specific CTL activity
Listed as CDCA1-A11-10-106
  peptide-specific CTL activity (IFN-gamma production): potent IFN-gamma production

## IVDSPEKLK (a peptide derived from CDCA1) [SEQ ID NO: 14]
Listed as CDCA1-A11-9-244
  peptide-specific CTL activity (IFN-gamma production): potent IFN-gamma production; also recorded: significant specific CTL activity

## KTEENSFKR (a peptide derived from CDCA1) [SEQ ID NO: 19]
Listed as CDCA1-A1-9-335
  peptide-specific CTL activity (IFN-gamma production): potent IFN-gamma production
Listed as CDCA1-A11-9-335
  peptide-specific CTL activity (IFN-gamma production): potent IFN-gamma production; also recorded: significant specific CTL activity

## SFKRLMIVKK (a peptide derived from CDCA1) [SEQ ID NO: 53]
Listed as CDCA1-A11-10-340
  peptide-specific CTL activity (IFN-gamma production): potent IFN-gamma production; also recorded: significant specific CTL activity

## IVLQEGNSQK (a peptide derived from CDCA1) [SEQ ID NO: 40]
Listed as CDCA1-A11-10-203
  peptide-specific CTL activity (IFN-gamma production): potent IFN-gamma production; also recorded: significant specific CTL activity
